From PubChem BioAssay AID1549 (Sanford-Burnham Center for Chemical Genomics, 2009) come the findings set out here.

Activity calls are given as the source filed them. The rule behind the calls is not given here. A value given as a limit tells only on which side of the number the result lay.

This test has as its target Influenza A virus M2 proton channel (A/TW/4845/1999 H1N1). Briefly: NMR binding screen, influenza A virus M2 proton channel, Kd (AID 1549). Conditions: M2 protein.
With `Cc1ccccc1NC(=O)c1ccccc1`, the Kd is > 4 mM (inactive).

As to `O=C(O)CSCC(=O)Nc1cccc(O)c1`, the Kd was > 4 mM (inactive).

On to `Cc1cc(C)cc(C(=O)n2cnnc2N)c1`, for which the Kd is > 4 mM (inactive).

On to `CC(=O)NC(c1ccccc1)c1cccnc1` (stereo not drawn), for which the Kd was > 4 mM (inactive).

`Cc1ccccc1C(=O)Nc1cccc(N)c1`: the Kd is > 4 mM (inactive).

With `N[C@@H](Cc1ccc(O)c(O)c1)C(=O)O`, the Kd is > 4 mM (inactive).

For the molecule `Cc1nn(-c2ccccc2)nc1C(=O)O`, the Kd is > 4 mM (inactive).

For the molecule `Cc1n[nH]c(=S)n1-c1ccc(C(=O)O)cc1`, the Kd is > 4 mM (inactive).

Consider `CCn1c(-c2ccccc2)n[nH]c1=S`, for which the Kd was > 4 mM (inactive).

In the case of `Cc1noc(C)c1C(=O)NC1=NCCS1`, the Kd was > 4 mM (inactive).

As to `O=C(NCCCO)c1ccncc1`, the Kd was > 4 mM (inactive).

As to `C/C=C(\C)C(=O)O[C@@H]1c2c(ccc3ccc(=O)oc23)OC(C)(C)[C@@H]1OC(C)=O`, the Kd was > 4 mM (inactive).

Consider `O=c1n(-c2cccc(Cl)c2)c(=O)n2n1CCC2`, for which the Kd is > 4 mM (inactive).

Regarding `Cc1ccc2c(c1)CC[C@H]1CC(=O)CC[C@]21C`, the Kd is > 4 mM (inactive).

On to `Nc1c(Nc2ccccc2)c2ccccc2oc1=O`, for which the Kd is > 4 mM (inactive).

As for `COc1c2ccoc2nc2c(OC)c(OCC(O)C(C)(C)O)ccc12` (stereo not drawn), the Kd is > 4 mM (inactive).

As to `Cc1cc(N2CCN(C)CC2)ncn1`, the Kd is > 4 mM (inactive).

`O=C1CSC(=Nc2ccccc2[N+](=O)[O-])N1`: the Kd is > 4 mM (inactive).

Take `CCOC(=O)CNC(=O)CSc1nnc(C)c(=O)[nH]1`: the Kd was > 4 mM (inactive).

On to `Cc1nnc(SCC(N)=O)c2ccccc12`, for which the Kd is > 4 mM (inactive).

In the case of `CC(=O)N1C(=S)NC(=O)/C1=C\c1cccnc1`, the Kd is > 4 mM (inactive).

As for `Cc1nnsc1C(=O)Nc1ccc(C(N)=O)cc1`, the Kd is > 4 mM (inactive).

Consider `O=C(O)CC1C(=O)NCCN1Cc1cccs1` (stereo not drawn), for which the Kd is > 4 mM (inactive).

Regarding `Cc1cc(=O)n2ncn(Cc3ccccc3)c2n1`, the Kd was > 4 mM (inactive).

Turning to `COc1ncccc1N`, the Kd is > 4 mM (inactive).

`O=C1NC(=Nc2ccccc2Cl)SC1(CO)CO`: the Kd was > 4 mM (inactive).

Turning to `COc1ccc(-c2coc3c(OC)c(OC)cc(OC)c3c2=O)cc1`, the Kd is > 4 mM (inactive).

For `COc1cc2nc(N3CCNCC3)nc(N)c2cc1OC`, the Kd is > 4 mM (inactive).

Take `CN=C(C)c1c(O)n(C)c(=S)n(C)c1=O`: the Kd was > 4 mM (inactive).

As for `O=[N+]([O-])c1cccc(-c2c[n+](=O)c3c(n2[O-])CCC3)c1`, the Kd was > 4 mM (inactive).

For the molecule `CC(=O)Oc1ccc(-c2cc(=O)c3c(OC(C)=O)cc(OC(C)=O)cc3o2)cc1`, the Kd is > 4 mM (inactive).

Take `O=C1C2C3C=CC(C3)C2C(=O)N1CCCO` (stereo not drawn): the Kd is > 4 mM (inactive).

For the molecule `Cn1c(=O)c2[nH]c(Nc3ccccc3)nc2n(C)c1=O`, the Kd is > 4 mM (inactive).

Consider `Cc1nn(C)c(N2CCOCC2)c1N`, for which the Kd is > 4 mM (inactive).

For the molecule `CC1(C)Cc2c(c(-c3ccco3)[nH]c(=O)c2C#N)CO1`, the Kd was > 4 mM (inactive).

With `NCC(O)c1ccc(O)cc1` (stereo not drawn), the Kd was > 4 mM (inactive).

With `NCCCCNCCCN`, the Kd was > 4 mM (inactive).

As to `Cc1ccccc1-n1c(-c2ccncc2)n[nH]c1=S`, the Kd was > 4 mM (inactive).

With `Nc1nncn1C(=O)c1ccccc1Cl`, the Kd is > 4 mM (inactive).

In the case of `Fc1ccc(F)c(CN2CCN(c3ncccn3)CC2)c1`, the Kd was > 4 mM (inactive).

`CC(CC(O)C1OC1(C)C)[C@@H]1CCC2(C)C3=CCC4C(C)(C)C(=O)CCC4(C)C3CC[C@@]12C` (stereo partly drawn): the Kd was > 4 mM (inactive).

For `O=c1c(-c2cccs2)[n+]([O-])c2ccccc2n1O`, the Kd was > 4 mM (inactive).

Consider `COc1ccc(C(N)=O)cc1N`, for which the Kd was > 4 mM (inactive).

For the molecule `COc1cc2occc2c2oc(=O)ccc12`, the Kd is > 4 mM (inactive).

As for `CN1CCC[C@H]1c1cccnc1`, the Kd is > 4 mM (inactive).

Consider `O=C(COc1ccccc1Cl)N1CCCC1`, for which the Kd is > 4 mM (inactive).

Take `CC(=O)Nc1ccc(NC(C)=O)c(C(F)(F)F)c1`: the Kd is > 4 mM (inactive).

On to `Cc1cccc(C)c1NC(=O)/C=C/C(=O)O`, for which the Kd is > 4 mM (inactive).

For `Clc1ccc2c(N3CCNCC3)ccnc2c1`, the Kd is > 4 mM (inactive).

Turning to `COc1ccc2c(c1O)-c1c(OC)c(OC)cc3c1[C@H](C2)N(C)CC3`, the Kd was > 4 mM (inactive).

Consider `O=C(O)C1CC(=O)N(Cc2ccco2)C1` (stereo not drawn), for which the Kd is > 4 mM (inactive).

For `COc1ccc(C(N)=O)cc1NC(C)=O`, the Kd was > 4 mM (inactive).

Take `CC(=O)OCC(=O)[C@@]1(O)CCC2C3CC[C@@H]4C[C@H](O)CC[C@]4(C)C3C(=O)C[C@@]21C` (stereo partly drawn): the Kd is > 4 mM (inactive).

On to `O=S(=O)(Cc1ccc(Cl)cc1)N1CCCC1`, for which the Kd is > 4 mM (inactive).

Consider `CCCCCCCCCCCC[C@H](C(=O)O)[C@@H](C)C(=O)O`, for which the Kd is > 4 mM (inactive).

With `CC(C)c1c(O)ccc2c1CCC1[C@@](C)(CO)CCC[C@]21C` (stereo partly drawn), the Kd is > 4 mM (inactive).

With `COC(=O)c1ccc(Cl)c(NC(C)=O)c1`, the Kd was > 4 mM (inactive).

`CCc1ccc(C(=O)N2CCCC2)s1`: the Kd was > 4 mM (inactive).

As to `Nc1nc(SCc2ccccc2)ns1`, the Kd is > 4 mM (inactive).

In the case of `CC1=[N+]([O-])C2(N)CCc3c(no[n+]3[O-])C2(O)C1` (stereo not drawn), the Kd is > 4 mM (inactive).

`CC1=C(/C=C/C(C)=C/C=C/C(C)=C/C=C/C=C(C)/C=C/C=C(C)/C=C/C2=C(C)CCCC2(C)C)C(C)(C)CCC1`: the Kd was > 4 mM (inactive).

Regarding `COc1ccc2[nH]cc(CCN(C)C)c2c1`, the Kd is > 4 mM (inactive).

As to `O=C(O)CSc1nnc(-c2cccs2)o1`, the Kd was > 4 mM (inactive).

Take `COC1(C)CCC2OC2(C)CCC2C1CC2(C)C` (stereo not drawn): the Kd was > 4 mM (inactive).

On to `Cn1cnnc1SCC(=O)Nc1nccs1`, for which the Kd is > 4 mM (inactive).

As for `NC(=O)c1cn(-c2ccccc2)nc1-c1cccnc1`, the Kd is > 4 mM (inactive).

Take `CCC(=O)OC1[C@@H]2CC3=C4CC(=O)O[C@@H](c5ccoc5)[C@]4(C)CCC3C(C)(C2=O)[C@@H](CC(=O)OC)C1(C)C` (stereo partly drawn): the Kd is > 4 mM (inactive).

For the molecule `CCn1nnc(NC(=O)c2cc3ccccc3o2)n1`, the Kd is > 4 mM (inactive).

On to `NS(=O)(=O)c1ccc(N=Cc2cccs2)cc1`, for which the Kd was > 4 mM (inactive).

As to `COc1cc(OC)c2c(c1Cl)OC1(C2=O)C(O)=CC(=O)CC1C` (stereo not drawn), the Kd is > 4 mM (inactive).

As for `CC(=O)c1ccc(Cc2cnc(N)s2)cc1`, the Kd was > 4 mM (inactive).

As to `CCOc1ccc2ccccc2c1C(=O)N1CCOCC1`, the Kd was > 4 mM (inactive).

Regarding `CC[C@@]1(O)C(=O)OCc2c1cc1n(c2=O)Cc2cc3ccccc3nc2-1`, the Kd is > 4 mM (inactive).

On to `N#CCSc1nc2ccccc2c(=O)n1-c1ccccc1`, for which the Kd is > 4 mM (inactive).

Regarding `CC(=O)NC(=S)Nc1ccc(S(N)(=O)=O)cc1`, the Kd is > 4 mM (inactive).

In the case of `CC1=CCc2c(cc3oc(C)cc(=O)c3c2O)OC1`, the Kd is > 4 mM (inactive).

In the case of `c1ccc(CCNc2ncnc3nc[nH]c23)cc1`, the Kd is > 4 mM (inactive).

On to `Cc1n[nH]c(=S)n(/N=C/c2ccccc2)c1=O`, for which the Kd is > 4 mM (inactive).

Turning to `CC(C)=CCC/C(C)=C/CC/C(C)=C/CC/C(C)=C/CC/C(C)=C/CC/C(C)=C/CC/C(C)=C/CC/C(C)=C/CC/C(C)=C/CO`, the Kd was > 4 mM (inactive).

Regarding `O=c1[nH]nc(Cc2ccccn2)c2ccccc12`, the Kd was > 4 mM (inactive).

Regarding `Cc1ccc2nc(SCC(=O)O)nc(C)c2c1`, the Kd was > 4 mM (inactive).

For `O=C(O)/C=C1\NC(=O)c2ccccc21`, the Kd is > 4 mM (inactive).

As to `COc1ccc([C@@H](C)C(=O)c2ccc(O)cc2O)cc1`, the Kd was > 4 mM (inactive).

On to `Nc1ccccc1-n1cccn1`, for which the Kd was > 4 mM (inactive).

For the molecule `COC(=O)c1ccc(C(=S)N2CCOCC2)cc1`, the Kd is > 4 mM (inactive).

As for `Cc1cc(C)n(S(=O)(=O)c2ccc(C(C)(C)C)cc2)n1`, the Kd was > 4 mM (inactive).

`COC(=O)c1cccs1`: the Kd is > 4 mM (inactive).

With `Cn1cnc2nc3n(c2c1=O)CCC3`, the Kd is > 4 mM (inactive).

`O=C(c1ccccc1)c1cncc(Br)c1`: the Kd is > 4 mM (inactive).

`O=C1CC(=O)N(c2ccccc2)C(=O)N1`: the Kd was > 4 mM (inactive).

Turning to `COc1ccc2c(CC(=O)O)coc2c1`, the Kd was > 4 mM (inactive).

For the molecule `CC(=O)c1cnc(Nc2nc(C)c3ccccc3n2)nc1C`, the Kd was > 4 mM (inactive).

As for `Nc1ccccc1C(=O)N1CCNC(=O)C1`, the Kd was > 4 mM (inactive).

As for `CCOc1ccccc1C(=O)NC1=NCCS1`, the Kd is > 4 mM (inactive).

Regarding `O=c1ccc2ccccc2o1`, the Kd was > 4 mM (inactive).

For `COC(=O)c1cccc(C(F)(F)F)c1`, the Kd was > 4 mM (inactive).

`Clc1ccccc1-c1nc(-c2cccnc2)no1`: the Kd was > 4 mM (inactive).

Take `Nc1cc(F)cc(F)c1`: the Kd was > 4 mM (inactive).

In the case of `NC1=C(c2ccccc2)C(=O)c2ccccc21`, the Kd is > 4 mM (inactive).

With `Cc1c(/C=N\n2cnnc2)c2ccccc2n1C`, the Kd was > 4 mM (inactive).

As to `NS(=O)(=O)c1ccc(NC(=O)C2CC2)cc1`, the Kd is > 4 mM (inactive).

As to `CN1CN/C(=N\[N+](=O)[O-])N(c2ccccc2)C1`, the Kd was > 4 mM (inactive).

For the molecule `CC(=O)Nc1ccc(NC(C)=O)cc1`, the Kd was > 4 mM (inactive).

In general, Kd refers to the concentration at which binding is half-saturated.
